This is an account of results in US4837371A, “Process for concentration of an aqueous solution of amino acid” (Mitsui Toatsu Chemicals, Inc., priority 1986, dated 1989).

SMILES strings stand for the structures. Where two headings read alike, the source gives them in different places.

The conditions of data set [1]: acid dissociation constant; listed as tryptophane; cited from earlier work.
The conditions of data set [2]: cited from earlier work; for solubility change with alcohol (in words): alcohol present in aqueous solution; for solubility in water (in words): at the isoelectric point.
The nature of data set [3]: solubility of L-tryptophan in an ethanol-aqueous solution (Referential Example 1). Format: physicochemical. To be noted: pH 5.89, 20° to 75° C. The protocol:
The pH of the aqueous solution was adjusted to the isoelectric point (5.89), and the aqueous solution was prepared from distilled water and reagent grade ethanol. In FIG. 1, letters a, b, c and d represent the solubility curves of L-tryptophan for the ethanol solution of different compositions shown below. […]
a: Ethanol: 0 Distilled water: 100 (parts by volume) b: Ethanol: 30 Distilled water: 70 c: Ethanol: 50 Distilled water: 50 d: Ethanol: 70 Distilled water: 30

With `N[C@@H](Cc1c[nH]c2ccccc12)C(=O)O` [L-tryptophan], in data set [1], the pK1 was 2.3. Besides, in data set [2], the “solubility change with alcohol (in words)” value (“solubility change” below) is recorded as “increase in solubility”. In addition, the “solubility by adjustment of pH only” value in data set [2] (pH not less than 11 or not more than 2) is 8 to 10 wt. %. The “increase of solubility on raising solution temperature” value in data set [2] (solution temperature raised to 60° C.) is no more than 2%. The “solubility in water (in words)” value in data set [2] is “sparingly soluble in water at the isoelectric point”; in data set [2] (listed as tryptophane), “very low solubility in water”. Moreover, the “solubility, temperature dependence” value in data set [3] was “increases as the temperature goes up from 20 °C to 75 °C”.

As for `C[C@H](N)C(=O)O` [alanine], the “solubility change” value in data set [2] was “decrease in solubility”.

Consider `N[C@@H](CSSC[C@H](N)C(=O)O)C(=O)O` [cystine], for which the “solubility in water (in words)” value in data set [2] is “sparingly soluble in water at the isoelectric point”.

As to `NCCCC[C@H](N)C(=O)O` [lysine], the “solubility in water (in words)” value in data set [2] was “highly soluble in water”.

Turning to `CSCC[C@H](N)C(=O)O` [methionine], the “solubility in water (in words)” value in data set [2] was “sparingly soluble in water at the isoelectric point”.

As for `N[C@@H](Cc1ccccc1)C(=O)O` [phenylalanine], the “solubility change” value in data set [2] is “increase in solubility”.
